Results from the supplement of paper PMC11451515.

Tested on: SEM cells
Test: cell viability relative to DMSO control; higher = less cytotoxic
Details: 48 h
Summary of the method: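 NOMO1 or SEM (500 cells/well) or P12-Ichikawa (1000 cells/well) leukemia cells were adapted for at least four passages in each medium. They were seeded in 1536-well plates (5 μl) and pin-dosed with library compounds in DMSO over an 11-point threefold series, 47 μM to 0.79 nM. CellTiter-Glo One luminescence was read after 48 h at 37°C. Viability is the per-plate percentage relative to DMSO wells, with cell-free wells as background.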

[1] = HPLM + 10% dialyzed FBS, 0.000781 µM
[2] = HPLM + 10% dialyzed FBS, 0.00234 µM
[3] = HPLM + 10% dialyzed FBS, 0.00702 µM
[4] = HPLM + 10% dialyzed FBS, 0.0211 µM
[5] = HPLM + 10% dialyzed FBS, 0.0632 µM
[6] = HPLM + 10% dialyzed FBS, 0.19 µM
[7] = HPLM + 10% dialyzed FBS, 0.569 µM
[8] = HPLM + 10% dialyzed FBS, 1.71 µM
[9] = HPLM + 10% dialyzed FBS, 5.12 µM
[10] = HPLM + 10% dialyzed FBS, 15.4 µM
[11] = HPLM + 10% dialyzed FBS, 46.1 µM
[12] = RPMI 5 mM glucose + 10% FBS, 0.000781 µM
[13] = RPMI 5 mM glucose + 10% FBS, 0.00234 µM
[14] = RPMI 5 mM glucose + 10% FBS, 0.00702 µM
[15] = RPMI 5 mM glucose + 10% FBS, 0.0211 µM
[16] = RPMI 5 mM glucose + 10% FBS, 0.0632 µM
[17] = RPMI 5 mM glucose + 10% FBS, 0.19 µM
[18] = RPMI 5 mM glucose + 10% FBS, 0.569 µM
[19] = RPMI 5 mM glucose + 10% FBS, 1.71 µM
[20] = RPMI 5 mM glucose + 10% FBS, 5.12 µM
[21] = RPMI 5 mM glucose + 10% FBS, 15.4 µM
[22] = RPMI 5 mM glucose + 10% FBS, 46.1 µM
[23] = RPMI 5 mM glucose + 10% dialyzed FBS, 0.000781 µM
[24] = RPMI 5 mM glucose + 10% dialyzed FBS, 0.00234 µM
[25] = RPMI 5 mM glucose + 10% dialyzed FBS, 0.00702 µM
[26] = RPMI 5 mM glucose + 10% dialyzed FBS, 0.0211 µM
[27] = RPMI 5 mM glucose + 10% dialyzed FBS, 0.0632 µM
[28] = RPMI 5 mM glucose + 10% dialyzed FBS, 0.19 µM
[29] = RPMI 5 mM glucose + 10% dialyzed FBS, 0.569 µM
[30] = RPMI 5 mM glucose + 10% dialyzed FBS, 1.71 µM
[31] = RPMI 5 mM glucose + 10% dialyzed FBS, 5.12 µM
[32] = RPMI 5 mM glucose + 10% dialyzed FBS, 15.4 µM
[33] = RPMI 5 mM glucose + 10% dialyzed FBS, 46.1 µM

SMILES | cell viability [1] [%] | cell viability [2] [%] | cell viability [3] [%] | cell viability [4] [%] | cell viability [5] [%] | cell viability [6] [%] | cell viability [7] [%] | cell viability [8] [%] | cell viability [9] [%] | cell viability [10] [%] | cell viability [11] [%] | cell viability [12] [%] | cell viability [13] [%] | cell viability [14] [%] | cell viability [15] [%] | cell viability [16] [%] | cell viability [17] [%] | cell viability [18] [%] | cell viability [19] [%] | cell viability [20] [%] | cell viability [21] [%] | cell viability [22] [%] | cell viability [23] [%] | cell viability [24] [%] | cell viability [25] [%] | cell viability [26] [%] | cell viability [27] [%] | cell viability [28] [%] | cell viability [29] [%] | cell viability [30] [%] | cell viability [31] [%] | cell viability [32] [%] | cell viability [33] [%]
O=C(NC[C@H](O)CO)c1ccncc1Nc1ccc(I)cc1F | 94.4 | 104 | 38.1 | 118 | 106 | 105 | 88.3 | 83.4 | 85.7 | 85.4 | 64.4 | 94.4 | 97.6 | 19.3 | 101 | 108 | 89.2 | 85.7 | 80.1 | 68.3 | 64.6 | 43.6 | 97.2 | 108 | 35.1 | 99 | 99.8 | 85.3 | 84.2 | 70.3 | 72.7 | 56.3 | 54.7
Cc1[nH]c2ccccc2c1CCNCc1ccc(/C=C/C(=O)NO)cc1 | 99.1 | 114 | 112 | 114 | 116 | 75.8 | 12.3 | 7.29 | 8.44 | 8.29 | 8.77 | 85.6 | 88.8 | 101 | 94.3 | 92.5 | 74.1 | 12.6 | 5.77 | 7.04 | 7.05 | 7.05 | 89.9 | 106 | 108 | 115 | 112 | 81.6 | 19.5 | 7.59 | 8.77 | 8.45 | 9.84
CNC(=O)c1ccc(N2C(=S)N(c3ccc(C#N)c(C(F)(F)F)c3)C(=O)C23CCC3)cc1F | 87.3 | 98.8 | 95.9 | 19.5 | 92.3 | 97 | 97.8 | 95.2 | 101 | 96.9 | 97.3 | 84.7 | 83.4 | 104 | 14.2 | 83 | 98.3 | 99.3 | 91.7 | 86.7 | 98.3 | 96.3 | 84.3 | 83 | 104 | 15.8 | 102 | 101 | 96.3 | 96.9 | 98 | 96.3 | 111
CN1\C(=C(\O)C2=CC=CC=C2[S+]1([O-])=O)C(=O)NC3=NC=C(C)S3 | 94.9 | 94.8 | 98.2 | 103 | 87.8 | 85.2 | 90.2 | 83.1 | 99.9 | 96.7 | 102 | 74.8 | 81.5 | 94.5 | 97.7 | 78 | 90.2 | 103 | 78.3 | 104 | 84 | 91.3 | 77.4 | 99.6 | 94.6 | 97 | 80.7 | 107 | 99.9 | 95.1 | 106 | 107 | 108
Cc1cn(-c2cc(NC(=O)c3ccc(C)c(Nc4nccc(-c5cccnc5)n4)c3)cc(C(F)(F)F)c2)cn1 | 83.5 | 92.7 | 97.1 | 107 | 107 | 109 | 95.2 | 52.4 | 40.9 | 37.3 | 35.4 | 106 | 120 | 108 | 124 | 111 | 125 | 110 | 31.4 | 31.6 | 21.4 | 17.5 | 111 | 106 | 104 | 110 | 111 | 98.9 | 102 | 26.9 | 33.6 | 21.5 | 17.2
CC(C)C1=C(O)C=C(O)C(=C1)C/2=N/NC(=O)N2C3=CC4=C(C=C3)[N](C)C=C4 |  |  |  |  |  |  |  |  |  |  |  | 123 | 112 | 116 | 101 | 72.5 | 22.7 | 25.2 | 20 | 23.6 | 20.7 | 15.4 | 113 | 112 | 111 | 114 | 75.2 | 34.2 | 29.6 | 23.8 | 25 | 25.3 | 22
CCC(C)(Oc1ccc(C2(c3ccc(OC(C)(CC)C(=O)O)cc3)CCCCC2)cc1)C(=O)O (stereo not given) | 103 | 96.8 | 108 | 103 | 109 | 108 | 105 | 108 | 101 | 109 | 77.9 | 103 | 101 | 119 | 113 | 108 | 111 | 109 | 91.3 | 104 | 102 | 77.7 | 117 | 101 | 99.1 | 108 | 107 | 102 | 118 | 110 | 114 | 113 | 86.6
CN[C@@H]1[C@H](O)[C@H](NC)[C@H]2O[C@@]3(O)C(=O)C[C@@H](C)O[C@H]3O[C@@H]2[C@H]1O | 119 | 125 | 122 | 123 | 121 | 120 | 118 | 122 | 113 | 115 | 109 | 120 | 110 | 126 | 117 | 115 | 113 | 123 | 110 | 104 | 104 | 104 |  |  |  |  |  |  |  |  |  |  | 
COc1ccc(-c2ccc3c(N4CCOC[C@@H]4C)nc(N4CCOC[C@@H]4C)nc3n2)cc1CO | 101 | 58.2 | 96.6 | 92.1 | 87.3 | 62.2 | 60.3 | 53.4 | 50.9 | 33 | 4.42 | 110 | 52 | 118 | 101 | 89.7 | 51 | 67.5 | 55.8 | 36.5 | 12.6 | 4.05 | 105 | 53 | 110 | 88.9 | 82.2 | 64.7 | 67.4 | 56.2 | 45.7 | 34.3 | 3.94
C[C@]1(c2nc3c(C(N)=O)cccc3[nH]2)CCCN1 | 63.8 | 74.1 | 75.9 | 89.1 | 78.3 | 81.3 | 74.5 | 90.6 | 87.2 | 80.3 | 63 | 81 | 62.7 | 68 | 88.8 | 83 | 87.4 | 89.7 | 85 | 98 | 98.1 | 59.8 | 68.5 | 63.7 | 64.9 | 87.2 | 71.9 | 79 | 84.5 | 75.6 | 76.7 | 76.7 | 51.5
CCn1c(-c2nonc2N)nc2cnc(Oc3cccc(NC(=O)c4ccc(OCCN5CCOCC5)cc4)c3)cc21 | 93.1 | 106 | 102 | 98.7 | 111 | 114 | 113 | 111 | 102 | 82.2 | 70.3 | 102 | 102 | 108 | 119 | 122 | 100 | 102 | 111 | 93.4 | 71.9 | 54.5 | 124 | 111 | 105 | 113 | 108 | 102 | 92.2 | 116 | 106 | 86.6 | 59.7
O=C1c2c(O)ccc(O)c2C(=O)c2c(NCCNCCO)ccc(NCCNCCO)c21 | 77.4 | 81 | 88.6 | 105 | 95 | 96.5 | 5.15 | 14.7 | 4.46 | 3.34 | 3.77 | 88.3 | 99.7 | 127 | 116 | 97.5 | 79.1 | 5.41 | 10.6 | 4.48 | 2.93 | 3.79 | 90 | 89 | 96.4 | 95.7 | 97.9 | 99 | 4.03 | 15.7 | 4.3 | 2.61 | 3.1
C/C=C1\C2C=C(C)CC1(N)c1ccc(=O)[nH]c1C2 (stereo not given) | 103 | 108 | 120 | 109 | 28.9 | 94.2 | 98 | 106 | 102 | 68.1 | 98.7 | 105 | 113 | 109 | 99.6 | 18.2 | 103 | 106 | 114 | 104 | 88 | 96.4 | 103 | 106 | 114 | 113 | 39.9 | 115 | 114 | 108 | 104 | 85.6 | 98.2
C[C@@H]\1CC(=O)N\N=C1C2=CC=C(NN=C(C#N)C#N)C=C2 | 88.9 | 86.8 | 101 | 87.4 | 98.4 | 96.5 | 55.4 | 92.3 | 106 | 62.8 | 4.93 | 68.2 | 92.4 | 107 | 92.6 | 88.4 | 102 | 39.3 | 90.9 | 95.2 | 35.3 | 5 | 73.5 | 88.4 | 91.4 | 93.1 | 95.2 | 92.5 | 72.8 | 100 | 107 | 53.2 | 6.27
